Assay results published in patent US20100210561A1, “USE OF PEPTIDE AS A THERAPEUTIC AGENT” (priority 2007, published 2010).
Where no end group is shown, it is not given here. [ ]: non-standard residue; d: D form. The star is where a group is joined. tBu = CC(C)(C)*

Columns and labels:
HIV-1IIIB = test: HIV-1 antiviral assay in CEM-SS cells (MTS readout); details: positive controls
HCMV strain AD169 = test: HCMV plaque formation assay in MRC-5 cells; type: cell-based, human cytomegalovirus; details: 10 micrograms per ml, 7-10 days
HUVEC = test: Endothelial tube formation assay; type: cell-based, human; details: 10 micrograms per ml, 20 hours
Description: The endothelial tube formation assay is based on the ability of endothelial cells to form three-dimensional capillary-like tubular structures when cultured on a gel of basement membrane extract. […] Positive control was vehicle only. The endothelial cells were allowed to form tubes foe 20 hours and were then examined under an inverted fluorescent microscope. Duplicate wells for each treatment were photographed and quantitatevily analyzed for an average tubule length using image analysis software ImageProPlus. Raw data were expressed as average tubule lengths in pixels±standard deviation. Statistic p values were computed using the Student's t-test.

Interferon-γ (IFN-γ) = test: Th1/Th2 cytokine profiling assay: IFN-γ; type: cell-based, Balb/c mice; details: Ovalbumin-restimulated spleen cells, 72 hours
[1] = tested on: Tumor Necrosis Factor-α (TNF-α); test: Th1/Th2 cytokine profiling assay: TNF-α; type: cell-based, Balb/c mice; details: Ovalbumin-restimulated spleen cells, 72 hours
Interleukin-4 (IL-4) = test: Th1/Th2 cytokine profiling assay: IL-4; type: cell-based, Balb/c mice; details: Ovalbumin-restimulated spleen cells, 72 hours
[2] = tested on: hepatitis B virus (HBV) ayw strain; test: HBV assay in HepG2-2.2.15 cells (secreted HBV DNA, TaqMan PCR); type: cell-based; details: 10 micrograms per ml, six days, HBV DNA in supernatant
Interleukin-2 (IL-2) = test: Th1/Th2 cytokine profiling assay: IL-2; type: cell-based, Balb/c mice; details: Ovalbumin-restimulated spleen cells, 72 hours

Row | Molecule | antiviral activity of positive control compounds (HIV-1IIIB) | inhibition of HCMV plaque formation as compared to the virus control experiment (HCMV strain AD169) [%] | inhibition of the tube formation of human endothelial cells (HUVEC) [%] | IFNγ spleen cells; TH1 response (% of control) (Interferon-γ (IFN-γ)) | induction of the production of IFN-γ in murine spleen cells (Interferon-γ (IFN-γ)) | TNF-a spleen cells; TH1 response (% of control) [1] | induction of the production of TNF-alpha in murine spleen cells [1] [%] | IL-4 spleen cells; TH2 response (% of control) (Interleukin-4 (IL-4)) | decrease of the production of IL-4 in murine spleen cells (Interleukin-4 (IL-4)) [%] | inhibition of HBV replication as compared to the virus control infection [2] [%] | IL-2 spleen cells (% of control) (Interleukin-2 (IL-2)) | induction of the production of IL-2 in murine spleen cells (Interleukin-2 (IL-2))
1 | Cc1cn([C@H]2C[C@H](N=[N+]=[N-])[C@@H](CO)O2)c(=O)[nH]c1=O [AZT] | expected levels of antiviral activity |  |  |  |  |  |  |  |  |  |  | 
2 | CC(C)(C)NC(=O)[C@@H]1CN(Cc2cccnc2)CCN1C[C@@H](O)C[C@@H](Cc1ccccc1)C(=O)N[C@H]1c2ccccc2C[C@H]1O [indinavir] | expected levels of antiviral activity |  |  |  |  |  |  |  |  |  |  | 
3 | Y[dC](tBu)GFLT(tBu)-OH [Peptide 1] |  | 46.5 | 4 | 107.6 % of control | did not significantly change | 123.7 % of control | 23.7 | 65.0 % of control | 35.0 | 24.2 | 115.0 % of control | did not significantly change
